Six compounds from patent publication US6368803B1, “Detection of nucleic acids by target-catalyzed formation” (Dade Behring Inc., priority 1994, dated 2002) can be followed below.

Data set [1] relates to single stranded target DNA (M13mp19). As to the kind of experiment: Target-catalyzed isothermal 5'-nuclease cleavage of 5'-32P-labeled probe; fold amplification by gel electrophoresis and liquid scintillation. The class given is biochemical. The procedure: Probe 2, the unlabeled probe, was designed to anneal to the target DNA 3' to, and contiguous with, the site at which the labeled probe annealed to the target DNA. […] However, good results were obtained in the absence of DATP. The reaction mixture was incubated at 72° C. and accumulation of product, a mononucleotide, namely, 5'^32P-C-OH, was determined by visualization using autoradiography following polyacrylamide gel electrophoresis. The fold of amplification was determined by liquid scintillation spectrometry of excised reaction products. A 10^5 fold amplification was observed. […] The product of this reaction was a dinucleotide, namely, 5'^32P-TC-OH (SEQ ID NO:4), that represented a 10^5-fold amplification. The above reaction protocol was repeated with different temperatures and different concentrations of reagents. All of the reactions, including those mentioned above, were carried out for a period of 3 hours. The following table summarizes the reagents and reaction parameters and the results obtained during the optimization procedure. The reaction protocol described in Example 1 was repeated using the following probes in place of Probe 1 or Probe 3: […]

Data set [2] concerns Probe 5 hybridized to target DNA (M13mp19). Briefly: Cleavage of Probe 5 on target DNA using six different DNA polymerases with 5'-nuclease activity. Type of data set: biochemical. The note with it: 2×10^9 target molecules; Probe 5 1 micromolar; three hours; 72 °C; 20-nucleotide fragment. How it is done: Probe 2, the unlabeled probe, was designed to anneal to the target DNA 3' to, and contiguous with, the site at which the labeled probe annealed to the target DNA. […] However, good results were obtained in the absence of DATP. The reaction protocol described in Example 1 was repeated using 2×10^9 target molecules and Probe 5 (see Example 2) at a concentration of 1 micromolar in place of Probe 1. The reactions were conducted for three hours at a temperature of 72° C. using one of six different DNA polymerases, namely, AmpliTaq DNA polymerase, […] polymerase (Epicentre), Tfl(TM) DNA polymerase (Epicentre), Ultra Therm(TM) DNA polymerase (Bio/Can Scientific), […] polymerase (Amresco) and Panozyme(TM) DNA polymerase. The product of the reaction was a 20-nucleotide fragment (see Example 2). The following is a summary of the results obtained.

Setting [3] is: probe 1 μM, target number 10^9, Taq 7.5 units, 72 °C, increase MgCl2 (7.5 mM), 3 hours.
The mark [4] stands for this setting: probe 10 uM, 2×10^8 target molecules, Probe 2 1 uM, 7.5 units AmpliTaq, 72 °C, 7.5 mM MgCl2, 100 uM dATP, 3 hours.
Setting [5] is: probe 10 μM, target number 10^8, Taq 7.5 units, 74 °C, increase MgCl2 (7.5 mM), 3 hours.
[6] abbreviates: probe 10 μM, target number 10^9, Taq 7.5 units, 74 °C, increase MgCl2 (7.5 mM), 3 hours.

Where “and” joins values, the source holds several entries; their conditions need not be identical. Equal values may be shown once. {32P} = terminal 32P phosphate radiolabel

Turning to “5′ CGT-GGG-AAC-AAA-CGG-CGG-AT3′ (CGTGGGAACAAACGGCGGAT; DNA, 5' {32P}, backbone and methylation of C not given here) [Probe 1, 20-base oligonucleotide fully complementary to the target DNA with label on the 5′-nucleotide]”, the Fold amplification in data set [1] (probe 1 μM, target number 10^8, Taq 7.5 units, 72 °C, add dATP (100 μM), 3 hours) was 1.0 × 10^4 fold; in data set [1] (probe 1 μM, target number 10^9, Taq 2.5 units, 72 °C, buffer as described, 1.5 mM MgCl2, 3 hours), 1.8 × 10^3 fold; in data set [1] (probe 1 μM, target number 10^9, Taq 7.5 units, 72 °C, add dATP (100 μM), 3 hours), 1.4 × 10^3 fold; in data set [1] (probe 1 μM, target number 10^9, Taq 7.5 units, 72 °C, buffer as described, 1.5 mM MgCl2, 3 hours), 2.0 × 10^3 fold; in data set [1] (setting [3]), 9.7 × 10^3 fold and 9.3 × 10^3 fold; in data set [1] (probe 1 μM, target number 10^10, Taq 2.5 units, 72 °C, buffer as described, 1.5 mM MgCl2, 3 hours), 8.8 × 10^2 fold. Moreover, the Fold amplification in data set [1] (setting [4]) was 10^5 fold; in data set [1] (probe 10 μM, target number 10^8, Taq 7.5 units, 72 °C, add dATP (100 μM), 3 hours), 3.6 × 10^4 fold; in data set [1] (setting [5]), 1.1 × 10^5 fold; in data set [1] (probe 10 μM, target number 10^9, Taq 7.5 units, 72 °C, add dATP (100 μM), 3 hours), 1.4 × 10^4 fold; in data set [1] (setting [6]) it was 3.7 × 10^4 fold.

Turning to “5′GAT-TAG-GAT-TAG-GAT-TAG-TCG-TGG-GAA-CAA-ACG-GCG-GAT3′ (GATTAGGATTAGGATTAGTCGTGGGAACAAACGGCGGAT; DNA, 5' {32P}, backbone and methylation of C not given here) [Probe 5, 39 nucleotides with 19 nucleotides at its 5′-end not complementary to the target DNA]”, the Fold amplification in data set [1] (Example 1 protocol, probe concentration not given, product intact 20 nucleotide fragment) is recorded as 1.5×10^4 fold.

Regarding “5′TCG-TGG-GAA-CAA-ACG-GCG-GAT3′ (TCGTGGGAACAAACGGCGGAT; DNA, 5' {32P}, backbone and methylation of C not given here) [Probe 3, 21 nucleotides withone base at the 5′-end not complementary to the target DNA]”, the Fold amplification in data set [1] (probe 1 μM, target number 10^8, Taq 7.5 units, 72 °C, increase MgCl2 (7.5 mM), 3 hours) is listed as 2.6 × 10^4 fold; in data set [1] (setting [3]) it was 9.9 × 10^3 fold; in data set [1] (setting [4]), 10^5 fold; in data set [1] (setting [5]) it was 1.0 × 10^5 fold; in data set [1] (setting [6]), 4.6 × 10^4 fold.

In the case of “5′TTA-TTT-CGT-GGG-AAC-AAA-CGG-CGG-AT3′ [Probe 4]”, the Fold amplification in data set [1] (Example 1 protocol, probe 1 micromolar, product intact seven nucleotide fragment) was 1.5×10^4 fold.

`Nc1ncnc2c1ncn2[C@H]1C[C@H](O)[C@@H](COP(=O)(O)OP(=O)(O)OP(=O)(O)O)O1` [dATP, reference compound]: the “effect on rate of cleavage by the polymerase” value in data set [1] (100 uM in buffer, AmpliTaq DNA polymerase) is given as “enhance the rate of cleavage”.

Regarding “AmpliTaq: Taq DNA polymerase from Perkin-Elmer Corporation with 5′-nuclease activity”, the “Fragment (picomoles)” value in data set [2] was 32 picomoles.
